In this assay the target is bovine cardiac myofibrils (full-length cardiac myosin ATPase in the native sarcomere) (Bos taurus (Bovine), UniProt Q9BE39). Description: Skinned bovine cardiac myofibril ATPase assay (PK/LDH-coupled). The assay is classed as biochemical. The conditions noted are these: Ca2+ activating to 75% of maximal rate; for CDMF75 IC15: concentration giving 15% inhibition; for IC50: read-out: CDMF75 IC50. Summed up:
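Triton-skinned bovine left-ventricle myofibrils (1 mg/mL) in PM 12 buffer (12 mM PIPES, 2 mM MgCl2, pH 6.8) with 50 μM ATP, 0.6 mM EGTA and CaCl2 set for 50% or 75% activation. Steady-state ATPase inhibition followed by PK/LDH-coupled NADH oxidation at 340 nm.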

Sequence of bovine cardiac myofibrils (full-length cardiac myosin ATPase in the native sarcomere) (Q9BE39 whole entry): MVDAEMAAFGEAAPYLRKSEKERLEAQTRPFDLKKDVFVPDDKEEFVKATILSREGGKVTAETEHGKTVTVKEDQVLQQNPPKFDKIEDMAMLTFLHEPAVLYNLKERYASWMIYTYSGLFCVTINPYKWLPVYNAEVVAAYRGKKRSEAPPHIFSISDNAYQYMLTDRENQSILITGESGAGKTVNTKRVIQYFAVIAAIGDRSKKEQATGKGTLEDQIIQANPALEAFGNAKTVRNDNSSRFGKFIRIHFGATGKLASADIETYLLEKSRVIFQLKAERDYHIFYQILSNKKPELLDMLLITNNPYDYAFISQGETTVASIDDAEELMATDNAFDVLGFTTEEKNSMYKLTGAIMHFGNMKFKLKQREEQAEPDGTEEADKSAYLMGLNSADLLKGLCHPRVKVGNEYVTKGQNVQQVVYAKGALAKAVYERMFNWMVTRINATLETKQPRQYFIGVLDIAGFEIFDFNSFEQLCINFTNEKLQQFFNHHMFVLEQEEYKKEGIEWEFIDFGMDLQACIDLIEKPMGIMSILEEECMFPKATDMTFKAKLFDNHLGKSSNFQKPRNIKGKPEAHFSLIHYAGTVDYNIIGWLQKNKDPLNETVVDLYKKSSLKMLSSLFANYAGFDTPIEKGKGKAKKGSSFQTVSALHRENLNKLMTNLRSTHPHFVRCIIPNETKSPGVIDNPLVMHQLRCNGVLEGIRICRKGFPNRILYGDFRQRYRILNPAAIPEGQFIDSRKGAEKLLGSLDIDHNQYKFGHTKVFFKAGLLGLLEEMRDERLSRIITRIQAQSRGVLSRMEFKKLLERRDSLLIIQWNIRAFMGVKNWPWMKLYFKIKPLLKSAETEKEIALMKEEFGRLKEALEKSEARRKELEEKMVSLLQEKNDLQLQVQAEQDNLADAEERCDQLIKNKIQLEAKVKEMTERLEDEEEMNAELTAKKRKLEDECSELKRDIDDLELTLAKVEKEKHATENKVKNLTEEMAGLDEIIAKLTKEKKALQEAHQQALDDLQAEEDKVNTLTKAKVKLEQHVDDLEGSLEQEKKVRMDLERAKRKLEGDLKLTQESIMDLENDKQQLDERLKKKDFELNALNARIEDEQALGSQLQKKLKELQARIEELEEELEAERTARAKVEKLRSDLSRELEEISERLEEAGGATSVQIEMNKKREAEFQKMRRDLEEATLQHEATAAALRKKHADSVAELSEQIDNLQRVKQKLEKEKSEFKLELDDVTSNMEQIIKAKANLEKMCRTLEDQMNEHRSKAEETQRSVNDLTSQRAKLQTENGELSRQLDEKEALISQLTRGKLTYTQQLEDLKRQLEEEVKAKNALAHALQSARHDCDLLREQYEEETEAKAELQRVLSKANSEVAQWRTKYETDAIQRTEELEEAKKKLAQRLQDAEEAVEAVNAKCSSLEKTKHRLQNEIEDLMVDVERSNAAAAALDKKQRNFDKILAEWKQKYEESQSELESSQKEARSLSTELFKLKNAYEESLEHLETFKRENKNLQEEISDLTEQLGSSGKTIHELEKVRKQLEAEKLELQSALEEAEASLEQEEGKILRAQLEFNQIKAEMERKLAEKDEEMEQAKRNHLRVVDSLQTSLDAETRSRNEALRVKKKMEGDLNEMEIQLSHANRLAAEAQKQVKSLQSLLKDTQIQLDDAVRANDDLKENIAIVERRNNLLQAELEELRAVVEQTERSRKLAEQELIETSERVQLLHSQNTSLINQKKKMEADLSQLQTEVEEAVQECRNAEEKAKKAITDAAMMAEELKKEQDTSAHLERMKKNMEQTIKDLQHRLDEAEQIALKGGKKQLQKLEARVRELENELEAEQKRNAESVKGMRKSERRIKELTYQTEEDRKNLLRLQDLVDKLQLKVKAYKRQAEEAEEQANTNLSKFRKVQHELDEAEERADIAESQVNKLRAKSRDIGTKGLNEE
Sequence of bovine cardiac myofibrils (full-length cardiac myosin ATPase in the native sarcomere) (P85100 whole entry partner): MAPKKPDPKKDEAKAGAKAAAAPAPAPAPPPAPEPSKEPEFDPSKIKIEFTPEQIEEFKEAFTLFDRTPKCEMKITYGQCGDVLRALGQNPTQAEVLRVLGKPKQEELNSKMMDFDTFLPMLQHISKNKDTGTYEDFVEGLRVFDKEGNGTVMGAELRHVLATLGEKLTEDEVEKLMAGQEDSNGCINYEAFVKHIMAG
Sequence of bovine cardiac myofibrils (full-length cardiac myosin ATPase in the native sarcomere) (Q3SZE5 whole entry partner): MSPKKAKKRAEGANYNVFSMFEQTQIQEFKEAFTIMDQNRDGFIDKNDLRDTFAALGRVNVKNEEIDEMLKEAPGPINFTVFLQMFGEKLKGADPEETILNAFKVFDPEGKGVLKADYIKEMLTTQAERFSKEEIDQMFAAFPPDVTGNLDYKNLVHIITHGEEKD

As usually defined, the IC50 is the concentration needed to halve the response being measured. Consider `CCc1nc(-c2ccc3c(c2)CC[C@H]3NC(=O)c2cnn(CC(=O)OC)c2)no1` [Compound 473, methyl (R)-2-(4-((5-(5-ethyl-1,2,4-oxadiazol-3-yl)-2,3-dihydro-1H-inden-1-yl)carbamoyl)-1H-pyrazol-1-yl)acetate], for which the “CDMF75 IC15” value was found to be 1.1 µM and the IC50 was 3.8 µM.

With `CCNC(=O)N[C@@H]1CCc2cc(-c3noc(C(F)F)n3)ccc21` [Compound 296, (R)-1-(5-(5-(difluoromethyl)-1,2,4-oxadiazol-3-yl)-2,3-dihydro-1H-inden-1-yl)-3-ethylurea], the “CDMF75 IC15” value worked out at 5.8 µM and the IC50 is greater than 39.2 µM.

In the case of `Cc1cc(C(=O)N[C@@H]2CCc3cc(-c4nc(C)no4)ccc32)ccn1` [Compound 131, (R)-2-methyl-N-(5-(3-methyl-1,2,4-oxadiazol-5-yl)-2,3-dihydro-1H-inden-1-yl)isonicotinamide], the “CDMF75 IC15” value came to 1.4 µM and the IC50 stood at 5.4 µM.

As to `Cn1nccc1C(=O)N[C@@H]1CCc2cc(-c3nccs3)ccc21` [Compound 370, (R)-1-methyl-N-(5-(thiazol-2-yl)-2,3-dihydro-1H-inden-1-yl)-1H-pyrazole-5-carboxamide], the “CDMF75 IC15” value stood at 3.8 µM and the IC50 turned out to be 19.1 µM.

As for `O=C(N[C@@H]1CCc2cc(-c3noc(C(F)F)n3)ccc21)OC1CCC1` [Compound 281, cyclobutyl (R)-(5-(5-(difluoromethyl)-1,2,4-oxadiazol-3-yl)-2,3-dihydro-1H-inden-1-yl)carbamate], the “CDMF75 IC15” value stood at 0.9 µM and the half-maximal inhibitory concentration (IC50) was greater than 39.2 µM.

Turning to `COCc1nc(-c2ccc3c(c2)OC[C@@H]3NC(=O)c2cc(C)nn2C)no1` [Compound 225, (R)-N-(6-(5-(methoxymethyl)-1,2,4-oxadiazol-3-yl)-2,3-dihydrobenzofuran-3-yl)-1,3-dimethyl-1H-pyrazole-5-carboxamide], the “CDMF75 IC15” value is 39.2 µM and the IC50 was found to be 39.2 µM.

Consider `O=C(N[C@@H]1CCc2cc(-c3noc(C(F)F)n3)ccc21)OC1CNC1` [Compound 291, azetidin-3-yl (R)-(5-(5-(difluoromethyl)-1,2,4-oxadiazol-3-yl)-2,3-dihydro-1H-inden-1-yl)carbamate], for which the “CDMF75 IC15” value is 17.3 µM and the IC50 was greater than 39.2 µM.

As to `CCc1nc(-c2ccc3c(c2)CC[C@H]3NC(=O)c2conc2C)no1` [Compound 566, (R)-N-(5-(5-ethyl-1,2,4-oxadiazol-3-yl)-2,3-dihydro-1H-inden-1-yl)-3-methylisoxazole-4-carboxamide], the “CDMF75 IC15” value was determined as 0.2 µM and the IC50 amounted to 0.8 µM.

For the compound `Cc1nc(-c2ccc3c(c2)OCC3NC(=O)c2ccccc2)no1` (stereo not drawn) [Compound 15, N-(6-(5-methyl-1,2,4-oxadiazol-3-yl)-2,3-dihydrobenzofuran-3-yl)benzamide], the “CDMF75 IC15” value is 0.6 µM and the concentration for half-maximal inhibition (IC50) amounted to 2 µM.

Turning to `Cc1nccc(C(=O)NC2CCc3cc(-c4noc(C(F)F)n4)ccc32)n1` (stereo not drawn) [Compound 26, N-(5-(5-(difluoromethyl)-1,2,4-oxadiazol-3-yl)-2,3-dihydro-1H-inden-1-yl)-2-methylpyrimidine-4-carboxamide], the “CDMF75 IC15” value stood at 7.8 µM and the IC50 amounted to 30.5 µM.

With `CCc1nc(-c2ccc3c(c2)OC[C@H]3NC(=O)c2cnc(C)o2)no1` [Compound 464, (S)-N-(6-(5-ethyl-1,2,4-oxadiazol-3-yl)-2,3-dihydrobenzofuran-3-yl)-2-methyloxazole-5-carboxamide], the “CDMF75 IC15” value was determined as 0.4 µM and the IC50 turned out to be 1.4 µM.

In the case of `CC(C)COC(=O)N[C@@H]1CCc2cc(-c3noc(C(F)F)n3)ccc21` [Compound 280, isobutyl (R)-(5-(5-(difluoromethyl)-1,2,4-oxadiazol-3-yl)-2,3-dihydro-1H-inden-1-yl)carbamate], the “CDMF75 IC15” value stood at 0.7 µM and the IC50 was determined as 2.7 µM.

Regarding `Cc1noc(-c2ccc3c(c2)CC[C@H]3NC(=O)c2ccnn2C)n1` [Compound 204, (R)-1-methyl-N-(5-(3-methyl-1,2,4-oxadiazol-5-yl)-2,3-dihydro-1H-inden-1-yl)-1H-pyrazole-5-carboxamide], the “CDMF75 IC15” value is 0.5 µM and the IC50 is 1.8 µM.

With `Cc1nc(-c2ccc3c(c2)OCC3NC(=O)c2oc(C)nc2C)no1` (stereo not drawn) [Compound 159, 2,4-dimethyl-N-(6-(5-methyl-1,2,4-oxadiazol-3-yl)-2,3-dihydrobenzofuran-3-yl)oxazole-5-carboxamide], the “CDMF75 IC15” value was found to be 1.9 µM and the IC50 amounted to 8.4 µM.

As for `Cc1cc(C(=O)N[C@@H]2CCc3cc(-c4ncc(C)o4)ccc32)ccn1` [Compound 139, (R)-2-methyl-N-(5-(5-methyloxazol-2-yl)-2,3-dihydro-1H-inden-1-yl)isonicotinamide], the “CDMF75 IC15” value came out at 3.6 µM and the IC50 was 17.3 µM.

For the compound `Cc1nc(-c2ccc3c(c2)OCC3NC(=O)c2cn(C)nc2C)no1` (stereo not drawn) [Compound 157, 1,3-dimethyl-N-(6-(5-methyl-1,2,4-oxadiazol-3-yl)-2,3-dihydrobenzofuran-3-yl)-1H-pyrazole-4-carboxamide], the “CDMF75 IC15” value came out at 1.4 µM and the 50% inhibitory concentration (IC50) is 5.9 µM.

Take `CC(=O)O[C@@H](C)c1nc(-c2ccc3c(c2)CCC3NC(=O)c2cn(C)nc2C)no1` (stereo partly drawn) [Compound 77, (1S)-1-(3-(1-(1,3-dimethyl-1H-pyrazole-4-carboxamido)-2,3-dihydro-1H-inden-5-yl)-1,2,4-oxadiazol-5-yl)ethyl acetate]: the “CDMF75 IC15” value is 4.9 µM and the IC50 stood at 26 µM.

Consider `CCc1nc(-c2ccc3c(c2)CC[C@H]3NC(=O)c2cc(C)nn2C)no1` [Compound 567, (R)-N-(5-(5-ethyl-1,2,4-oxadiazol-3-yl)-2,3-dihydro-1H-inden-1-yl)-1,3-dimethyl-1H-pyrazole-5-carboxamide], for which the “CDMF75 IC15” value was 0.3 µM and the IC50 was 1 µM.

In the case of `CCc1nc(-c2ccc3c(c2)CC[C@H]3NC(=O)c2ccc(=O)n(CC)c2)no1` [Compound 641, (R)-1-ethyl-N-(5-(5-ethyl-1,2,4-oxadiazol-3-yl)-2,3-dihydro-1H-inden-1-yl)-6-oxo-1,6-dihydropyridine-3-carboxamide], the “CDMF75 IC15” value worked out at 1.4 µM and the IC50 amounted to 5.7 µM.

Regarding `CCc1nc(-c2ccc3c(c2)CC[C@H]3NC(=O)c2cccc(C(C)O)c2)no1` (stereo partly drawn) [Compound 715, N-((R)-5-(5-ethyl-1,2,4-oxadiazol-3-yl)-2,3-dihydro-1H-inden-1-yl)-3-(1-hydroxyethyl)benzamide], the “CDMF75 IC15” value amounted to 0.4 µM and the IC50 was found to be 1.5 µM.

`Cc1noc(-c2ccc3c(c2)CC[C@H]3NC(=O)c2nnn(C)n2)n1` [Compound 203, (R)-2-methyl-N-(5-(3-methyl-1,2,4-oxadiazol-5-yl)-2,3-dihydro-1H-inden-1-yl)-2H-tetrazole-5-carboxamide]: the “CDMF75 IC15” value stood at 1.0 µM and the IC50 was determined as 3.6 µM.

Consider `Cc1cnc(C(=O)NC2CCc3cc(-c4noc(C(F)F)n4)ccc32)c(C)n1` (stereo not drawn) [Compound 41, N-(5-(5-(difluoromethyl)-1,2,4-oxadiazol-3-yl)-2,3-dihydro-1H-inden-1-yl)-3,5-dimethylpyrazine-2-carboxamide], for which the “CDMF75 IC15” value was 6.6 µM and the IC50 is greater than 39.2 µM.

For `[2H]C([2H])([2H])c1nc(-c2ccc3c(c2)CC[C@H]3NC(=O)c2ocnc2C)no1` [Compound 251, (R)-4-methyl-N-(5-(5-(methyl-d3)-1,2,4-oxadiazol-3-yl)-2,3-dihydro-1H-inden-1-yl)oxazole-5-carboxamide], the “CDMF75 IC15” value came to 0.5 µM and the IC50 came out at 1.5 µM.

As to `CCc1nc(-c2ccc3c(c2)CC[C@H]3NC(=O)c2cc(C)ncc2F)no1` [Compound 556, (R)-N-(5-(5-ethyl-1,2,4-oxadiazol-3-yl)-2,3-dihydro-1H-inden-1-yl)-5-fluoro-2-methylisonicotinamide], the “CDMF75 IC15” value amounted to 1.4 µM and the IC50 was determined as 7.6 µM.

`CCc1nc(-c2ccc3c(c2)CC[C@H]3NC(=O)c2cccc(C(O)CO)c2)no1` (stereo partly drawn) [Compound 700, 3-(1,2-dihydroxyethyl)-N-((R)-5-(5-ethyl-1,2,4-oxadiazol-3-yl)-2,3-dihydro-1H-inden-1-yl)benzamide]: the “CDMF75 IC15” value amounted to 0.7 µM and the IC50 turned out to be 2.6 µM.

Turning to `Cc1cncc(-c2ccc3c(c2)CC[C@H]3NC(=O)c2ccnn2C)c1` [Compound 376, (R)-1-methyl-N-(5-(5-methylpyridin-3-yl)-2,3-dihydro-1H-inden-1-yl)-1H-pyrazole-5-carboxamide], the “CDMF75 IC15” value is 3.9 µM and the IC50 worked out at 18.5 µM.

For `Cc1nc(-c2ccc3c(c2)CC[C@H]3NC(=O)c2cnn(C)c2)no1` [Compound 66, (R)-1-methyl-N-(5-(5-methyl-1,2,4-oxadiazol-3-yl)-2,3-dihydro-1H-inden-1-yl)-1H-pyrazole-4-carboxamide], the “CDMF75 IC15” value is 1.2 µM and the IC50 was determined as 4.5 µM.

`Cn1nccc1C(=O)N[C@@H]1CCc2cc(-c3noc(C4CC4(C)C)n3)ccc21` (stereo partly drawn) [Compound 460, N-((1R)-5-(5-(2,2-dimethylcyclopropyl)-1,2,4-oxadiazol-3-yl)-2,3-dihydro-1H-inden-1-yl)-1-methyl-1H-pyrazole-5-carboxamide]: the “CDMF75 IC15” value worked out at 1.3 µM and the IC50 was found to be 5.5 µM.

Turning to `[2H]C([2H])([2H])c1noc(-c2ccc3c(c2)CC[C@H]3NC(=O)c2oncc2C)n1` [Compound 275, (R)-4-methyl-N-(5-(3-(methyl-d3)-1,2,4-oxadiazol-5-yl)-2,3-dihydro-1H-inden-1-yl)isoxazole-5-carboxamide], the “CDMF75 IC15” value amounted to 0.8 µM and the concentration for half-maximal inhibition (IC50) came out at 2.9 µM.

`Cc1cc(C(=O)NC2CCc3cc(-c4ncc(C)o4)ccc32)ccn1` (stereo not drawn) [Compound 140, 2-methyl-N-(5-(5-methyloxazol-2-yl)-2,3-dihydro-1H-inden-1-yl)isonicotinamide]: the “CDMF75 IC15” value came to 7.6 µM and the IC50 is greater than 39.2 µM.

These data come from US12065436B2, “Cardiac sarcomere inhibitors” (Cytokinetics, Inc., priority 2018, dated 2024).
